Assays:
human GCase = human GCase (Homo sapiens, UniProt P04062); assay: Inhibitory activity against GCase (4-methylumbelliferyl β-glucoside substrate); assay type: biochemical; details: for IC50: 4-methylumbelliferyl β-glucoside at 3 mM, pH 5.2, 37° C., 30 min
[1] = shortly after the start of the treatment; cited from earlier work
[2] = test system: Fibroblasts established from Gaucher patients with N370S/N370S mutation; assay: Chaperone rescue of residual GCase activity in Gaucher fibroblasts; assay type: cell-based, human; details: N370S homozygous fibroblasts, cultured 4 days with compound, at optimal concentration

human GCase, sequence (P04062 40-536): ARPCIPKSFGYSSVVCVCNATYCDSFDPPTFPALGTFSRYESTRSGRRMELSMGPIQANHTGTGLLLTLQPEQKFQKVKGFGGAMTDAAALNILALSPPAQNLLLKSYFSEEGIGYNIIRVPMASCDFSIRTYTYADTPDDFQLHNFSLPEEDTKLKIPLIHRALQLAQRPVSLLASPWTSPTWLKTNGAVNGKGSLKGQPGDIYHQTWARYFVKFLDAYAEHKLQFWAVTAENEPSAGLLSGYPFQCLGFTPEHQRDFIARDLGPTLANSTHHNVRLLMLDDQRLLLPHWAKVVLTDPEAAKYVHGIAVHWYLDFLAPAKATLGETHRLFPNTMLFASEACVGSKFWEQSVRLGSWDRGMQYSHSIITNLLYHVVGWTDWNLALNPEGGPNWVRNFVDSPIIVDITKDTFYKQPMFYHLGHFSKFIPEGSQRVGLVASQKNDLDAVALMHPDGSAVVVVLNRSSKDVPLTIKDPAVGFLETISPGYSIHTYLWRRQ

Row | Compound | IC50 (human GCase) [nM] | other results
1 | CCCC[C@@H]1NC[C@@H](O)[C@H](O)[C@H]1CO [Compound 11, (3R, 4R, 5R, 6S)-5-(Hydroxymethyl)-6-n-butyl-3,4-dihydroxypiperidine] | 160 | effect of 6-C substitution on potency towards GCase (human GCase; compared with the parent hydroxypiperidine): did not affect the potency
2 | CCCCCC[C@@H]1NC[C@@H](O)[C@H](O)[C@H]1CO [Compound 12, (3R, 4R, 5R, 6S)-5-(Hydroxymethyl)-6-n-hexyl-3,4-dihydroxypiperidine] | 4.2 | increase in potency over IFG (human GCase; relative to IFG): approximately 13 fold
3 | CCCCCCC[C@@H]1NC[C@@H](O)[C@H](O)[C@H]1CO [Compound 13, (3R, 4R, 5R, 6S)-5-(Hydroxymethyl)-6-n-heptyl-3,4-dihydroxypiperidine] | 1.8 | –
4 | CCCCCCCC[C@@H]1NC[C@@H](O)[C@H](O)[C@H]1CO [Compound 14, (3R, 4R, 5R, 6S)-5-(Hydroxymethyl)-6-n-octyl-3,4-dihydroxypiperidine] | 0.8 | –
5 | CCCCN1CC(O)C(O)C(O)C1CO (stereo not shown) [N-butyl 1-deoxynojirimycin] | – | patients with diarrhea (most frequent adverse effect) [1]: 79%
6 | OC[C@H]1CNC[C@@H](O)[C@@H]1O [hydroxypiperidine, isofagomine] | – | increase of residual enzyme activity in patient cells [2]: approximately 2 fold
7 | N-butyl hydroxypiperidine [reference compound] | 44000 | –
8 | N-nonyl hydroxypiperidine [reference compound] | > 100000 | –

Source: US7741340B2, “Hydroxy piperidine derivatives to treat gaucher disease” (Amicus Therapeutics, Inc., priority 2003, dated 2010)
